Consider two compounds from article PMC6686156, “Discovery of Sustainable Drugs for Neglected Tropical Diseases: Cashew Nut Shell Liquid (CNSL)‐Based Hybrids Target Mitochondrial Function and ATP Production in Trypanosoma brucei” (Chemmedchem, 2019).

The structures appear in SMILES notation.

One data set concerns T. b. brucei ISMR1. Briefly: In vitro drug susceptibility assay (resazurin), dyskinetoplastic ISMR1 strain. The class given is cell-based, Trypanosoma brucei brucei. To be noted: isometamidium-resistant line. The procedure: (§1) Organisms and culture media: Only bloodstream trypomastigotes of T. b. brucei were used throughout this study. […] Parasites were cultured in vented flasks at 37 °C and 5 % CO2 atmosphere and they were passaged every 3 days. Bloodstream forms of T. congolense savannah‐type strain IL3000 were cultured in basal MEM medium, supplemented by 10 % fresh goat serum, 14 μL of β‐mercaptoethanol, 800 μL of 200 mM glutamine solution, and 10 mL of penicillin/streptomycin solution per liter of medium (pH 7.3).48 T. congolense were cultured in six‐well plates at 34 °C and 5 % CO2.
(§2) In brief, the assays were performed in 96‐well plates with 2×10^5 cells per well for T. b. brucei or 5×10^5 cells per well for T. congolense, in their respective culture media. First, 200 μL of test compounds’ solutions (400 μM, in T. brucei or T. congolense medium as appropriate) was added to the first well of each 12‐well row, from which doubling dilutions were conducted over one row per test compound. […] Fluorescence was detected using a FLUOstar Optima (BMG Labtech, Durham, NC, USA) at wavelength of 540 nm (excitation), 590 nm (emission). EC50 values were calculated by nonlinear regression using an equation for a sigmoidal dose–response curve with variable slope using Prism 5.0 (GraphPad Software Inc., San Diego, CA, USA).
Background: Resazurin is reduced to fluorescent resorufin, in cell work by metabolically active cells.

Data set [1] concerns T. b. rhodesiense (STIB 900 strain). Further details: method as in earlier work. As to conditions: different resazurin protocol, ref 14a, read-out: IC50 (called EC50) against T. b. rhodesiense; cited from earlier work.
The subject of data set [2] is T. b. brucei 427WT bloodstream trypomastigotes. Briefly: microbe, parasite or virus in culture. The class given is cell-based, Trypanosoma brucei brucei. As to conditions: Trypanosoma brucei, 72 h; bloodstream trypomastigotes; resazurin; 48 h + 24 h; n=4; read-out: EC50 T. b. b. 427WT. The procedure: as §1, §2
Data set [3] deals with T. b. brucei aqp2/aqp3‐KO. The data set can be described thus: microbe, parasite or virus in culture. The class given is cell-based, Trypanosoma brucei brucei. The procedure: as §1, §2
The test system of the next data set is T. b. brucei B48. The data set can be described thus: microbe, parasite or virus in culture. In kind it is cell-based, Trypanosoma brucei brucei. The procedure:
as §1, §2

Another data set has as its system L6 mammalian cells. Further details: method as in earlier work. To be noted: versus T. b. rhodesiense STIB 900; ref 14a; cited from earlier work.
The next data set concerns T. congolense IL3000 WT. The data set can be described thus: In vitro drug susceptibility assay (resazurin), T. congolense. To be noted: Trypanosoma congolense, bloodstream forms, read-out: EC50 T. c. IL3000 WT. In kind it is cell-based. The procedure: as §1, §2
Data set [4] deals with T. b. brucei 427WT bloodstream trypomastigotes. The data set can be described thus: ATP assay on T. b. brucei (luciferin-luciferase). In kind it is cell-based, Trypanosoma brucei brucei. As to conditions: oligomycin 2.0 μg/mL, positive control. The procedure:
(§3) ATP assay on T. b. brucei and HFF cells: Changes in cellular ATP levels due to the exposure of trypanosomes to the test compounds (0.5×EC50) were monitored using the Molecular Probes ATP Determination Kit (A22066, Invitrogen Detection Technologies), based on the luciferin–luciferase bioluminescent enzymatic reaction. Bloodstream trypomastigote cultures of T. brucei s427WT were incubated with and without test compound, and, at each predetermined incubation time, 10^7 cells of each sample were transferred into a microfuge tube and centrifuged at 2000×g for 10 min at 4 °C. The pellet was washed twice with 1 mL of 50 mM Tris⋅HCl (pH 7.4) containing 0.1 mM DTT, and then resuspended in 200 μL of the same buffer. The cells were lysed by sonication on ice (twice for 10 s separated by 30 s), using a Soniprep 150 (MSE) at 8 μm amplitude. The samples were centrifuged at 10 000×g for 10 min at 4 °C and the supernatant was collected, instantly frozen in liquid nitrogen, and stored at −80 °C. Oligomycin (2.0 μg mL^−1) was used as positive control. ATP levels were quantified using the contents of the kit following the manufacturer's instructions; 90 μL of standard reaction solution was added to each well of a 96‐well plate and the background luminescence was recorded in a FLUOstar OPTIMA fluorimeter; 10 μL of each sample was then added to each well. The plate was incubated at 28 °C for 15 min and the luminescence was measured, including a standard curve with an ATP concentration ranging from 1 nM to 1 μM to allow the calculation of the ATP concentrations in each sample. The ATP content was measured at 0, 0.5, 1, 2, 4, 8 and 12 h of incubation with test sample.

The next data set relates to HFF cells. Briefly: ATP assay on HFF cells. In kind it is cell-based, human. To be noted: 22 at 200 μM, oligomycin 2 μg/mL; 0, 4, 8 h. The procedure: as §3, with “same buffer. […] ATP levels” for “same buffer. The cells were lysed by sonication on ice (twice for 10 s separated by 30 s), using a Soniprep 150 (MSE) at 8 μm amplitude. The samples were centrifuged at 10 000×g for 10 min at 4 °C and the supernatant was collected, instantly frozen in liquid nitrogen, and stored at −80 °C. Oligomycin (2.0 μg mL^−1) was used as positive control. ATP levels”, “test sample. […]” for “test sample.”

On to `O=C1C=C(Oc2ccccc2)C(=O)c2ccccc21` [Compound 4, 2‐phenoxynaphthalene‐1,4‐dione, reference compound], for which the “EC50 in ISMR1 relative to 427WT tested in parallel” value in the data set on T. b. brucei ISMR1 is on record as “did not show a significant increase in the EC50 values”. Further, in [1], the half-maximal inhibitory concentration (IC50) (in general, the concentration at which inhibition is half-maximal) was 0.08 µM. Moreover, the EC50 came out at 48.7 ± 0.8 µM in data set [2]; 62.4 ± 0.8 µM in data set [3] (Trypanosoma brucei, read-out: EC50 T. b. b. aqp2/aq3‐KO); 63 ± 0.4 µM in the data set with T. b. brucei B48 (Trypanosoma brucei, read-out: EC50 T. b. b. B48); 108 ± 2 µM in the data set with T. congolense IL3000 WT. In addition, the “RF, resistance factor relative to WT (aqp2/aqp3-KO)” value in data set [3] (aqp2/aqp3-KO versus 427WT) was found to be 1.3. In the data set with T. b. brucei B48 (B48 versus 427WT), the “RF, resistance factor relative to WT (B48)” value was determined as 1.3. Besides, the “selectivity index (SI) with respect to L6 mammalian cells” value in the data set on L6 mammalian cells is on record as 74.

As for `CC[C@H]1/C=C/C=C/C[C@@H](C)[C@H](O)[C@@](C)(O)C(=O)[C@@H](C)[C@H](O)[C@@H](C)C(=O)[C@@H](C)[C@H](O)[C@@H](C)/C=C/C(=O)O[C@@H]2[C@H](C)[C@H](CC1)O[C@]1(CC[C@H](C)[C@H](C[C@@H](C)O)O1)[C@H]2C` [oligomycin, reference compound], the “effect on ATP levels relative to 20 and 22” value in data set [4] is on record as “depressed the ATP levels even further”. In addition, the “effect on cellular ATP levels of HFF cells” value with HFF cells is reported as “strong effect even at 4 h”.
